Results reported in patent US10052306B2 (LUC THERAPEUTICS, INC., priority 2013, dated 2018).
pIC50: −log10 of the molar value.

Columns and labels:
[1] = biological target: NR1/NR2B (Homo sapiens (Human), UniProt Q05586+Q13224); assay: Cell assay: FDSS Ca2+ influx inhibition in HEK293 cells expressing NR1/NR2B; details: Binned Activity, HEK293 cells expressing NR1/NR2B, Ca2+ influx; binned NR2B NAM IC50;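 further: Fluo-8 Ca2+ signal read on Hamamatsu FDSS 6000 after glutamate, glycine and Ca2+ challenge following 10 min compound preincubation, end/baseline fluorescence ratio compared with MK801 control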
[2] = biological target: NR1/NR2B (Homo sapiens (Human), UniProt Q13224); assay: as above; details: read-out: NR2B NAM IC50; HEK293 cells expressing NR1/NR2B, Ca2+ influx
Chain of NR1/NR2B (Homo sapiens (Human), UniProt Q13224) (Q13224 27-1484, other chains not shown): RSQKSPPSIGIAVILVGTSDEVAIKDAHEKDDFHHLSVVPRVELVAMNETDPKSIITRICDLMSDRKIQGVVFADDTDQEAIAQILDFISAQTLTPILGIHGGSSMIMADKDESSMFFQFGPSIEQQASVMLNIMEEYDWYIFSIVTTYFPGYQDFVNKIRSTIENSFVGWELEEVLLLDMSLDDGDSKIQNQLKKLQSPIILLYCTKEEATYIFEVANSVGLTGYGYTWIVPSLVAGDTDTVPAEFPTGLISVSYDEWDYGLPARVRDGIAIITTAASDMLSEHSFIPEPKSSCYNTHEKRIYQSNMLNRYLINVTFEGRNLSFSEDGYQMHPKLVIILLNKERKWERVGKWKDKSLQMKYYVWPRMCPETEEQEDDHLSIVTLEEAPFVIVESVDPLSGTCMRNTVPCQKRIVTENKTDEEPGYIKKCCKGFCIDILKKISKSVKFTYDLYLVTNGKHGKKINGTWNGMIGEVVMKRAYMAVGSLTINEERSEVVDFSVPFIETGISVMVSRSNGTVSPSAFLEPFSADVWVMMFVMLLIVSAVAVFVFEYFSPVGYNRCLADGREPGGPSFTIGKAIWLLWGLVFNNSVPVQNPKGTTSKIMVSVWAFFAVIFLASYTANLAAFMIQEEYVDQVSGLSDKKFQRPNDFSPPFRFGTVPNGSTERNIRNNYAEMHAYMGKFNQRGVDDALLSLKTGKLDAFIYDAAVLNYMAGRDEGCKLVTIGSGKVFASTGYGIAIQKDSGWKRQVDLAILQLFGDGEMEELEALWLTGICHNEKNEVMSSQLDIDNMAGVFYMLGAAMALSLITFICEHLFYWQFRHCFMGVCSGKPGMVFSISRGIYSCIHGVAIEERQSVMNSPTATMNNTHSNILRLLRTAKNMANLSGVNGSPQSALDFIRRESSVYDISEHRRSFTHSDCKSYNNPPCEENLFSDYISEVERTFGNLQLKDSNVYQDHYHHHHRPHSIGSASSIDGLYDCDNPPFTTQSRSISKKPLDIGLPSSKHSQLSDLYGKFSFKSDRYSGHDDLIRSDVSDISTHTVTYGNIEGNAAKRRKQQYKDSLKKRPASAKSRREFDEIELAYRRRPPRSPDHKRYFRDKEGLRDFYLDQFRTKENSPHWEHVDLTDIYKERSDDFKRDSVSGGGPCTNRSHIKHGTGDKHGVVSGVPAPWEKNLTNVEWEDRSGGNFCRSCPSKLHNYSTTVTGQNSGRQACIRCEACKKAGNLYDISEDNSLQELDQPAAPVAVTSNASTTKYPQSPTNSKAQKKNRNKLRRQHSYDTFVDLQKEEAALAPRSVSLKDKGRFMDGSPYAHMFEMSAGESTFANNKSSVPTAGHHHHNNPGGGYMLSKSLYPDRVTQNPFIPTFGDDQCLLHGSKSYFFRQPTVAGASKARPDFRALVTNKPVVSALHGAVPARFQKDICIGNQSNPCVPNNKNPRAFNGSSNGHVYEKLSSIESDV

Chain of NR1/NR2B (Homo sapiens (Human), UniProt Q05586+Q13224) (Q13224 27-1484, other chains not shown): as above

Row | SMILES | pIC50 [1] | pIC50 [2]
1 | CC(C)(C)OC(=O)Nc1ccc(C(=O)CN2C[C@@H]3C[C@@](O)(Cc4ccccc4)C[C@@H]3C2)cn1 [Example 284, tert-butyl (5-(2-(5-benzyl-5-hydroxyhexahydrocyclo-penta[c]pyrrol-2(1H)-yl)acetyl)pyridin-2-yl)carbamate] | < 5.00 | 5.00
2 | Cc1ccccc1-c1ccc(C(=O)CN2C[C@@H]3C[C@@](O)(Cc4ccccc4)C[C@@H]3C2)cc1 [Example 260, 2-((3aR,5r,6aS)-5-benzyl-5-hydroxyhexahydrocyclo-penta[c]pyrrol-2(1H)-yl)-1-(2′-methyl-[1,1′-biphenyl]-4-yl)ethanone] | < 5.00 | 5.00
3 | Cc1cc(C)cc(C[C@]2(O)C[C@H]3CN(CC(=O)c4ccc(O)cc4)C[C@H]3C2)c1 [Example 212, 2-[(3aR,5R,6aS)-5-[(3,5-dimethylphenyl)methyl]-5-hydroxy-octahydrocyclopenta[c]pyrrol-2-yl]-1-(4-hydroxyphenyl)ethan-1-one] | < 5.00 | 5.00
4 | CC(C)(C)c1ccc([C@]2(O)C[C@H]3CN(C(=O)Nc4cccc(C(F)(F)F)c4)C[C@H]3C2)cc1 [Example 55, 5-(4-tert-butylphenyl)-5-hydroxy-N-[3-(trifluoromethyl)phenyl]-octahydrocyclopenta[c] pyrrole-2-carboxamide] | < 5.00 | 5.00
5 | Oc1ccc([C@H](O)CN2C[C@@H]3C[C@@](O)(Cc4ccccc4)C[C@@H]3C2)cc1 [Example 137, (3aR,5S,6aS)-5-benzyl-2-((S)-2-hydroxy-2-(4-hydroxyphenyl)ethyl)octa-hydrocyclopenta[c]pyrrol-5-ol] | > 7.00 | 7.69
6 | Cc1ccccc1-c1cccc(C(=O)CN2C[C@@H]3C[C@@](O)(Cc4ccccc4)C[C@@H]3C2)c1 [Example 278, 2-((3aR,5r,6aS)-5-benzyl-5-hydroxyhexahydrocyclo-penta[c]pyrrol-2(1H)-yl)-1-(2′-methyl-[1,1′-biphenyl]-3-yl)ethanone] | < 5.00 | 5.00
7 | COc1cccc(NC(=O)N2C[C@H]3C[C@@H](c4ccccc4)C[C@H]3C2)c1 [Example 104, N-(3-methoxyphenyl)-5-phenyl-octahydrocyclopenta[c] pyrrole-2-carboxamide] | < 5.00 | 5.00
8 | O=C(CN1C[C@@H]2C[C@@](O)(Cc3ccccc3)C[C@@H]2C1)c1ccc2[nH]nnc2c1 [Example 167, 2-[(3aR,5R,6aS)-5-benzyl-5-hydroxy-octahydrocyclopenta[c]pyrrol-2-yl]-1-(1H-1,2,3-benzotriazol-5-yl)ethan-1-one] | < 5.00 | 5.00
9 | Oc1ccc([C@@H](O)CN2C[C@@H]3C[C@@](O)(Cc4ccccc4)C[C@@H]3C2)cc1 [Example 136, (3aR,5R,6aS)-5-benzyl-2-((R)-2-hydroxy-2-(4-hydroxyphenyl)ethyl)octa-hydrocyclopenta[c]pyrrol-5-ol] | > 7.00 | 7.63
10 | O=C(COc1ccc(C(=O)CN2C[C@@H]3C[C@@](O)(Cc4ccc(F)cc4)C[C@@H]3C2)cc1F)c1ccc(O)c(F)c1 [Example 173, 2-(2-fluoro-4-(2-((3aR,5r,6aS)-5-(4-fluorobenzyl)-5-hydroxyhexahydrocyclo-penta[c]pyrrol-2(1H)-yl)acetyl)phenoxy)-1-(3-fluoro-4-hydroxyphenyl)ethanone] | < 5.00 | 5.00
11 | O=C(CN1C[C@@H]2C[C@@](O)(Cc3ccccc3)C[C@@H]2C1)c1cc(F)c(O)c(F)c1 [Example 159, 2-((3aR,5r,6aS)-5-benzyl-5-hydroxyhexahydrocyclo-penta[c]pyrrol-2(1H)-yl)-1-(3,5-difluoro-4-hydroxyphenyl)ethanone] | < 5.00 | 4.94
12 | O=C(Cc1ccc(O)cc1)CN1C[C@@H]2C[C@@](O)(Cc3ccccc3)C[C@@H]2C1 [Example 145, 1-((3aR,5r,6aS)-5-benzyl-5-hydroxyhexahydrocyclo-penta[c]pyrrol-2(1H)-yl)-3-(4-hydroxyphenyl)propan-2-one] | < 5.00 | 5.00
13 | COc1cccc([C@]2(O)C[C@H]3CN(C(=O)Nc4ccccc4)C[C@H]3C2)c1 [Example 29, 5-hydroxy-5-(3-methoxyphenyl)-N-phenyl-octahydrocyclopenta[c] pyrrole-2-carboxamide] | < 5.00 | 5.00
14 | O=C(Nc1cccc(Cl)c1)N1C[C@H]2C[C@@H](c3ccccc3)C[C@H]2C1 [Example 106, N-(3-chlorophenyl)-5-phenyl-octahydrocyclopenta[c] pyrrole-2-carboxamide] | < 5.00 | 5.00
15 | O=C(CN1C[C@@H]2CN(Cc3ccccc3)C[C@@H]2C1)c1ccc(O)c(F)c1 [Example 340, 2-(5-benzylhexahydropyrrolo [3,4-c]pyrrol-2(1H)-yl)-1-(3-fluoro-4-hydroxyphenyl)ethanone] | < 5.00 | 5.00

The next lines start with the values.

Row | pIC50 [1] | pIC50 [2] | SMILES
16 | < 5.00 | 5.00 | O=C(CN1C[C@@H]2C[C@@](O)(c3ccccc3)C[C@@H]2C1)c1cccc(F)c1 [Example 61, 1-(3-fluorophenyl)-2-{5-hydroxy-5-phenyl-octahydrocyclopenta[c]pyrrol-2-yl}ethan-1-one]
17 | < 5.00 | 5.00 | Cc1cccc(N2C[C@@H]3C[C@@](O)(c4ccccc4C)C[C@@H]3C2)n1 [Example 86, 5-(2-methylphenyl)-2-(6-methylpyridin-2-yl)-octahydrocyclopenta[c] pyrrol-5-ol]
18 | > 7.00 | 7.42 | Oc1ccc([C@@H](O)CN2C[C@@H]3C[C@@](O)(Cc4ccccc4)C[C@@H]3C2)nc1 [Example 1646, (3aR,5S,6aS)-5-benzyl-2-((S)-2-hydroxy-2-(5-hydroxypyridin-2-yl)ethyl)octahydrocyclo-penta[c]pyrrol-5-ol]
19 | 6.00 to 7.00 | 6.46 | O=C(CN1C[C@@H]2C[C@@](O)(CC3CCCCC3)C[C@@H]2C1)c1ccc(O)cc1 [Example 205, 2-[(3aR,5R,6aS)-5-(cyclohexylmethyl)-5-hydroxy-octahydrocyclopenta[c]pyrrol-2-yl]-1-(4-hydroxyphenyl)ethan-1-one]
20 | 6.00 to 7.00 | 6.67 | O=C(CN1C[C@H]2C[C@@H](CCc3ccccc3)C[C@H]2C1)c1ccc(O)cc1 [Example 324, 1-(4-hydroxyphenyl)-2-((3aR,5r,6aS)-5-phenethylhexa-hydrocyclo-penta[c]pyrrol-2(1H)-yl)ethanone]
21 | > 7.00 | 7.52 | Oc1ccc([C@H](O)CN2C[C@@H]3C[C@@](O)(Cc4ccccc4)C[C@@H]3C2)cc1F [Example 156, (3aR,5S,6aS)-5-benzyl-2-((S)-2-(3-fluoro-4-hydroxyphenyl)-2-hydroxyethyl)octahydro-cyclopenta[c]pyrrol-5-ol]
22 | 6.00 to 7.00 | 6.02 | O=C(CN1C[C@@H]2C[C@@](O)(Cc3ccccn3)C[C@@H]2C1)c1ccc(O)cc1 [Example 231, 2-((3aR,5r,6aS)-5-hydroxy-5-(pyridin-2-ylmethyl)hexahydro-cyclopenta[c]pyrrol-2(1H)-yl)-1-(4-hydroxyphenyl)ethanone]
